Laboratory results published in patent EP1948196B1, “USE OF TETRAORGANOSILICON COMPOUNDS” (Salama, Zoser B., priority 2005, dated 2007).
Values after ≈ are worked out from the molar mass of the structure shown. Like-named read-outs stand apart in the source and are kept apart here. Numbered stars: 1 amine (or outer) side, 2 acyl side, 3 side chain; on linkers, the order of the positions; unused ones are H or OH. Bridge positions count the residues as written; N and C are the ends. Peptide text beside a SMILES is read from it. I, II: the chains in the order shown. X2 = c1ccc([Si](O[*:1])(O[*:2])c2ccccc2)cc1; OSiEt2O = CC[Si](CC)(O[*:1])O[*:2]

Assays:
Angiosarkome = test: Effect on angiosarcomas
[1] = test system: Kälber-Aortenendothelzellinie BKEz-7; test: tissue or blood; format: cell-based; details: for IC50: suspensions, 48 Stunden bei 37°C
From the text: Prüfung auf zytotoxisches Potential an Kälber-Aortenendothelzellinie BKEz-7
Als Marker für eine zytotoxische Wirkung wird bei Zellen der charakterisierten Kälber-Aortenendothelzellinie BKEz-7 die Hemmkonzentration ermittelt, bei der eine 50%-ige Hemmung der Zellproliferation erfolgt (im Vergleich zu Kontrollkulturen ohne Zusatz eines Zellinhibitors). Die resultierende Reduzierung der Zellzahl um 50% wird als IC 50 ausgedrückt. Die getesteten Silanverbindungen wurden als Suspensionen auf die Kulturen gegeben und 48 Stunden bei 37°C inkubiert. Zusätzlich erfolgten morphologische Kontrollen und Vitalitätsbestimmungen mittels dem Neutralrot-Test. Mit Ausnahme des Di(dodecanoyloxy)dimethylsilans standen alle Ergebnisse der morphologischen Untersuchungen in guter Übereinstimmung. […]

Maus = test: Pharmacological observation in the mouse (central, vegetative and toxic effects, acute toxicity); format: in vivo; details: for oLD (orienberende letale Dosis): mouse, in vivo
From the text: Pharmakologische Untersuchungen an der Maus
Die Verbindungen wurden an der Maus auf zentrale, vegetative und toxische Effekte geprüft. Durch systemische Einzelbeobachtungen sind neben der akuten Toxizität (orienberende letale Dosis, oLD) zentrale und vegetative Wirkungen der Testsubstanzen, insbesondere Effekte auf die Motorik und das Reaktionsvermögen, die Haut- und Rektaltemperatur sowie auf die Pupillenmotorik erfasst worden. Die getesteten Dosierungen betrugen 5 •10^-4, 1 • 10^-3 und 5 • 10^-3 mol/kg Körpergewicht Letale Wirkungen konnten bei keiner der Verbindungen beobachtet werden. Die oLD lag für Di(tetradecanoyloxy)dimethylsilan und Di(octadecanoyloxy)dimethylsilan unter 1 • 10^-3 mol/kg Körpergewicht für alle übrigen Verbindungen unter 5 • 10^-3 mollkg Körpergewicht.

Basalzellkarzinome = test: Effect on basal cell carcinomas
Lymphome = test: Effect on lymphomas
Osteosarkome = test: Effect on osteosarcomas
[2] = test system: BxPC3 (pankreatisches Adenokarzinom); test: MTT test, triplicate, two-fold dilutions; format: cell-based; details: Homo sapiens
Experimental: (§1) Die Silan wurden in Ethanol aufgelöst und in Zellkulturmedien in Konzentrationen von bis zu 500 µg/ml resuspendiert. Es wurden MTT Tests in dreifacher Ausführung durchgeführt, für welche doppelte Lösungen (7 Schritte) und colo205 (Kofon-Karzinom), BxPC3 (pankreatisches Adenokarzinom) sowie T47D (Brustkrebs) benutzt wurden.

T47D (Brustkrebs) = test: MTT test, triplicate, two-fold dilutions; format: cell-based; details: Homo sapiens, T47D, read-out: IC50 T47D
Experimental: as §1

colo205 (Kofon-Karzinom) = test: MTT test, triplicate, two-fold dilutions; format: cell-based; details: Homo sapiens
Experimental: as §1

Seminome = test: Effect on seminomas
[3] = COLO 205, read-out: IC50 Colo205

CC[Si](CC)(OC(=O)CNC(=O)CNC(=O)CNC(=O)CNC(=O)CNC(=O)CNC(=O)CNC(=O)CN)OC(=O)CNC(=O)CNC(=O)CNC(=O)CNC(=O)CNC(=O)CNC(=O)CNC(=O)CN [Diethyl bis(octablycyl)silylester] (I: H-GGGGGGGG / II: H-GGGGGGGG; linker I:C-II:C via OSiEt2O)
Wirkung gegen Angiosarkome (Angiosarkome): zeigen eine Wirkung

C[C@H](N)C(=O)N[C@@H](C)C(=O)N[C@@H](C)C(=O)N[C@@H](C)C(=O)N[C@@H](C)C(=O)N[C@@H](C)C(=O)N[C@@H](C)C(=O)N[C@@H](C)C(=O)N[C@@H](C)C(=O)N[C@@H](C)C(=O)O[Si](OC(=O)[C@H](C)NC(=O)[C@H](C)NC(=O)[C@H](C)NC(=O)[C@H](C)NC(=O)[C@H](C)NC(=O)[C@H](C)NC(=O)[C@H](C)NC(=O)[C@H](C)NC(=O)[C@H](C)NC(=O)[C@H](C)N)(c1ccccc1)c1ccccc1 [Diphenyl bis(decaalanyl)silylester]
Wirkung gegen Angiosarkome (Angiosarkome): zeigen eine Wirkung

CC(C)[C@H](N)C(=O)N[C@H](C(=O)N[C@H](C(=O)N[C@H](C(=O)N[C@H](C(=O)N[C@H](C(=O)O[Si](OC(=O)[C@@H](NC(=O)[C@@H](NC(=O)[C@@H](NC(=O)[C@@H](NC(=O)[C@@H](NC(=O)[C@@H](N)C(C)C)C(C)C)C(C)C)C(C)C)C(C)C)C(C)C)(c1ccccc1)c1ccccc1)C(C)C)C(C)C)C(C)C)C(C)C)C(C)C [Diphenyl bis(hexavalyl)silylester] (I: H-VVVVVV / II: H-VVVVVV; linker I:C-II:C via X2)
Wirkung gegen Angiosarkome (Angiosarkome): zeigen eine Wirkung

CCCCCCCCCC(=O)O[Si](OC(=O)CCCCCCCCC)(c1ccccc1)c1ccccc1 [Di(decanoyloxy)diphenylsilan]
Bedenkliche Toxizität [1]: - | IC50 [1]: 14 µM | zentrale, vegetative und toxische Effekte (Verhaltensänderungen) (Maus; 1•10^-3 mol/kg): keine Verhaltensänderungen | zentrale, vegetative und toxische Effekte (Verhaltensänderungen) (Maus; 5•10^-3 mol/kg): schwache Ataxie | zentrale, vegetative und toxische Effekte (Verhaltensänderungen) (Maus; 5•10^-4 mol/kg): keine Verhaltensänderungen | Wirkung auf Basalzellkarzinome (Basalzellkarzinome): zeigen eine Wirkung

CCCCCCCCCCCCCCCCC(=O)O[Si](OC(=O)CCCCCCCCCCCCCCCC)(C(C)C)C(C)C [Di(heptadecanoyloxy)diisopropylsilan]
Wirkung auf Lymphome (Lymphome): zeigen eine Wirkung

CCCCCCCCC(=O)O[Si](C)(C)OC(=O)CCCCCCCC [Di(nonanoyloxy)dimethylsilan]
Wirkung auf Osteosarkome (Osteosarkome): zeigen eine Wirkung

CCCCCCCC/C=C\CCCCCCCC(=O)O[Si](C)(C)OC(=O)CCCCCCC/C=C\CCCCCCCC
Wirkung auf Lymphome (Lymphome): zeigen eine Wirkung

CCCCCCCCCCCCC(=O)O[Si](CC)(CC)OC(=O)CCCCCCCCCCCC [Si 6, Di (tridecanoyloxy) diethylsilan]
IC50 ([2]; BXPC-3, read-out: IC50 BxPC3): 150 µg/mL (≈ 292 µM) | IC50 (T47D (Brustkrebs)): 250 µg/mL (≈ 487 µM) | IC50 (colo205 (Kofon-Karzinom); [3]): 240 µg/mL (≈ 468 µM)

CCCCCCCCCCCCCCCC(=O)O[Si](OC(=O)CCCCCCCCCCCCCCC)(c1ccccc1)c1ccccc1 [Si 8, Di (hexadecanoyloxy) diphenylsilan]
zentrale, vegetative und toxische Effekte (Verhaltensänderungen) (Maus; 1•10^-3 mol/kg): keine Verhaltensänderungen | zentrale, vegetative und toxische Effekte (Verhaltensänderungen) (Maus; 5•10^-3 mol/kg): schwache Ataxie, Hyperaktivität und Piloerektion, Straubtail | zentrale, vegetative und toxische Effekte (Verhaltensänderungen) (Maus; 5•10^-4 mol/kg): keine Verhaltensänderungen | IC50 ([2]; BXPC-3, up to 500 µg/ml, read-out: IC50 BxPC3): 30 µg/mL (≈ 43.3 µM) | IC50 (T47D (Brustkrebs); up to 500 µg/ml): 20 µg/mL (≈ 28.9 µM) | IC50 (colo205 (Kofon-Karzinom); COLO 205, up to 500 µg/ml, read-out: IC50 Colo205): 300 µg/mL (≈ 433 µM) | Wirkung auf Basalzellkarzinome (Basalzellkarzinome): zeigen eine Wirkung

CC(C)[C@H](N)C(=O)N[C@H](C(=O)N[C@H](C(=O)N[C@H](C(=O)N[C@H](C(=O)N[C@H](C(=O)N[C@H](C(=O)N[C@H](C(=O)N[C@H](C(=O)O[Si](OC(=O)[C@@H](NC(=O)[C@@H](NC(=O)[C@@H](NC(=O)[C@@H](NC(=O)[C@@H](NC(=O)[C@@H](NC(=O)[C@@H](NC(=O)[C@@H](NC(=O)[C@@H](N)C(C)C)C(C)C)C(C)C)C(C)C)C(C)C)C(C)C)C(C)C)C(C)C)C(C)C)(c1ccccc1)c1ccccc1)C(C)C)C(C)C)C(C)C)C(C)C)C(C)C)C(C)C)C(C)C)C(C)C [Diphenyl bis(nonavalyl)silylester] (I: H-VVVVVVVVV / II: H-VVVVVVVVV; linker I:C-II:C via X2)
Wirkung gegen Angiosarkome (Angiosarkome): zeigen eine Wirkung

CCCCCCCCCCCCCC(=O)O[Si](CC)(CC)OC(=O)CCCCCCCCCCCCC [Si 14, Di (tetradecanoyloxy) diethylsilan]
IC50 ([2]; BXPC-3, read-out: IC50 BxPC3): 70 µg/mL (≈ 129 µM) | IC50 (T47D (Brustkrebs)): 65 µg/mL (≈ 120 µM) | IC50 (colo205 (Kofon-Karzinom); [3]): 250 µg/mL (≈ 462 µM)

CCCCCCCCCCCCCCCCCC(=O)O[Si](OC(=O)CCCCCCCCCCCCCCCCC)(C(C)C)C(C)C [Di(octadecanoyloxy)diisopropylsilan]
Wirkung auf Lymphome (Lymphome): zeigen eine Wirkung

CCCCC/C=C\C/C=C\CCCCCCCC(=O)O[Si](C)(C)OC(=O)CCCCCCC/C=C\C/C=C\CCCCC [Di(linoylooxy)dimethylsilan]
Wirkung auf Lymphome (Lymphome): zeigen eine Wirkung

CCCCCCCCC(=O)O[Si](CCC)(CCC)OC(=O)CCCCCCCC [Di(nonanoyloxy)dipropylsilan]
Wirkung auf Seminome (Seminome): zeigen eine Wirkung

CC[Si](CC)(OC(=O)CNC(=O)CNC(=O)CNC(=O)CNC(=O)CNC(=O)CN)OC(=O)CNC(=O)CNC(=O)CNC(=O)CNC(=O)CNC(=O)CN [Diethyl bis(hexaglycyl)Silylester]
Wirkung gegen Angiosarkome (Angiosarkome): zeigen eine Wirkung

CCCCCCCCCCCCCC(=O)O[Si](C)(C)OC(=O)CCCCCCCCCCCCC [Di(tetradecanoyloxy)dimethylsilan]
Bedenkliche Toxizität [1]: - | IC50 [1]: 110 µM | zentrale, vegetative und toxische Effekte (Verhaltensänderungen) (Maus; 1•10^-3 mol/kg): Ataxie | zentrale, vegetative und toxische Effekte (Verhaltensänderungen) (Maus; 5•10^-4 mol/kg): schwache Ataxie, Piloerektion | oLD (orienberende letale Dosis) (Maus): < 1 • 10^-3 mol/kg Körpergewicht | Wirkung auf Osteosarkome (Osteosarkome): zeigen eine Wirkung

CCCCC/C=C\C/C=C\CCCCCCCC(=O)O[Si](CC)(CC)OC(=O)CCCCCCC/C=C\C/C=C\CCCCC [Di(linoylooxy)diethylsilan]
Wirkung auf Lymphome (Lymphome): zeigen eine Wirkung

CCCCCCCC(=O)O[Si](OC(=O)CCCCCCC)(c1ccccc1)c1ccccc1 [Di(octanoyloxy)diphenylsilan]
Bedenkliche Toxizität [1]: - | IC50 [1]: > 20 µM | zentrale, vegetative und toxische Effekte (Verhaltensänderungen) (Maus; 1•10^-3 mol/kg): Ataxie, Hyper-aktivität | zentrale, vegetative und toxische Effekte (Verhaltensänderungen) (Maus; 5•10^-3 mol/kg): schwache Ataxie, Hyperaktivität | zentrale, vegetative und toxische Effekte (Verhaltensänderungen) (Maus; 5•10^-4 mol/kg): schwache Hyperaktivität | Wirkung auf Basalzellkarzinome (Basalzellkarzinome): zeigen eine Wirkung

CCCCCCCC(=O)O[Si](C)(C)OC(=O)CCCCCCC [Di(octanoyloxy)dimethylsilan]
Wirkung auf Osteosarkome (Osteosarkome): zeigen eine Wirkung

CCCCCCCCCC(=O)O[Si](CCC)(CCC)OC(=O)CCCCCCCCC [Di(decanoyloxy)dipropylsilan]
Wirkung auf Seminome (Seminome): zeigen eine Wirkung

CC/C=C\C/C=C\C/C=C\CCCCCCCC(=O)O[Si](C)(C)OC(=O)CCCCCCC/C=C\C/C=C\C/C=C\CC [Di (lino-lenoylooxy)dimethylsilan]
Wirkung auf Lymphome (Lymphome): zeigen eine Wirkung

CCCCCCCCCCC(=O)O[Si](CCC)(CCC)OC(=O)CCCCCCCCCC [Di(undecanoyloxy) dipropylsilan]
Wirkung auf Seminome (Seminome): zeigen eine Wirkung

CCCCCCCCCCCC(=O)O[Si](OC(=O)CCCCCCCCCCC)(c1ccccc1)c1ccccc1 [Di(dodecanoyloxy)diphenylsilan]
Bedenkliche Toxizität [1]: - | IC50 [1]: 36 µM | zentrale, vegetative und toxische Effekte (Verhaltensänderungen) (Maus; 1•10^-3 mol/kg): keine Verhaltensänderungen | zentrale, vegetative und toxische Effekte (Verhaltensänderungen) (Maus; 5•10^-3 mol/kg): keine Verhaltensänderungen | zentrale, vegetative und toxische Effekte (Verhaltensänderungen) (Maus; 5•10^-4 mol/kg): keine Verhältensänderungen | Wirkung auf Basalzellkarzinome (Basalzellkarzinome): zeigen eine Wirkung

CCCCCCCCCC(=O)O[Si](C)(C)OC(=O)CCCCCCCCC [Di(decanoyloxy)dimethylsilan]
zentrale, vegetative und toxische Effekte (Verhaltensänderungen) (Maus; 1•10^-3 mol/kg): Piloerektion | zentrale, vegetative und toxische Effekte (Verhaltensänderungen) (Maus; 5•10^-3 mol/kg): schwach bis mäßig ausgeprägte Verhaltensänderung en | zentrale, vegetative und toxische Effekte (Verhaltensänderungen) (Maus; 5•10^-4 mol/kg): keine Verhaltensänderungen | Wirkung auf Osteosarkome (Osteosarkome): zeigen eine Wirkung

CCCCCCCCCCCCCCCCCC(=O)O[Si](C)(C)OC(=O)CCCCCCCCCCCCCCCCC [Di(octadecanoyloxy)dimethylsilan]
Bedenkliche Toxizität [1]: - | IC50 [1]: 495 µM | zentrale, vegetative und toxische Effekte (Verhaltensänderungen) (Maus; 1•10^-3 mol/kg): keine Verhaltensänderungen | zentrale, vegetative und toxische Effekte (Verhaltensänderungen) (Maus; 5•10^-4 mol/kg): keine Verhaltensänderungen | oLD (orienberende letale Dosis) (Maus): < 1 • 10^-3 mol/kg Körpergewicht | Wirkung auf Osteosarkome (Osteosarkome): zeigen eine Wirkung
